Test results taken from patent publication US12065468B2, “Heme-binding small peptide” (priority 2021, dated 2024).
Entries after “also recorded” stand apart in the source; their conditions may differ.

Legend:
[1] = system: Candida albicans; experiment: C. albicans biofilm formation; format: cell-based
[2] = Water solubility
[3] = system: ribosomal machinery; experiment: In-vitro translation assay, GFP production; format: biochemical; settings: increasing concentrations; fluorescence and western blot; listed as L-NCR247
Excerpt: FIG. 19. Interaction of NCR247 with ribosomal machinery leads to modification in translational capability. (A) In-vitro translation assay to measure GFP production with increasing concentrations of L or D-NCR247. […] (B) Western blot to measure the amount of GFP produced using Anti-GFP antibody.
Interaction of NCR247 with ribosomal machinery leads to modification in translational capability. To see if this is due to chiral interaction, we performed in-vitro translation assay and used GFP production and measured fluorescence as a read out. We also performed a western blot to measure the amount of GFP produced using Anti-GFP antibody.

[4] = system: Haemophilus influenzae; experiment: Cell viability assay for H. influenzae; format: cell-based; settings: 24 hours, BHI with 7.5 μM hemin
Description: (§1) Cell viability assays for H. influenza and P. gingivalis: Haemophilus influenzae Rd [KW20] was obtained from ATCC (51907). Standard growth and culturing techniques were followed as described previously^92. Cultures were grown in Brain Heart Infusion broth (BHI) supplemented with 7.5 μM of hemin and 2 μg/ml NAD with or without the addition of peptide for 24 hours. The number of viable cells for every reaction mixture was then determined by serially diluting and spotting 10-μl aliquots in triplicates on BHI agar plates supplemented with 15 μM hemin and 3 μM NAD. Porphyromonas gingivalis 2561 was obtained from ATCC (33277). Pre-reduced, anaerobically sterilized Brucella Broth and BRU—Brucella Blood Agar—were purchased from Anaerobe systems (CA, USA). They were opened just before use. Static cultures and plates were incubated at 37° C. in an incubation chamber from BD GasPak™ EZ Container Systems. Anaerobic conditions were maintained by using BD BBL CO2 gas generators and BD BB GasPak™ CO2 indicators. Cultures were grown anaerobically in Brucella Broth with or without addition of peptides for 48 hours and viable cells for every reaction mixture were then determined by serially diluting and spotting 10-μ1 aliquots in triplicates on Brucella Blood Agar.

[5] = system: HEK-293; experiment: Cytotoxic activity assay (MTT); format: cell-based, Human; settings: 100 μM, 24 h, listed as L-NCR247
Description: Cytotoxic activity assay: Human embryonic kidney (HEK-293-ATCC-CRL-1573) cell lines were cultured in Dulbecco's Modified Eagle Medium (DMEM) supplemented with 10% Fetal Bovine Serum (FBS). When cells reached 10^4-10^5 cells per well, cells were supplemented with fresh DMEM without FBS, and then treated with 100 μM of NCR247 (L and D). After treatment for 24 h, MTT (Abeam, United Kingdom) stock solution was added to each well at a final concentration of 500 μg/mL and incubated in the dark for 4 h at 37° C. The absorbance at 570 nm was measured in the Tecan plate reader.

[6] = system: Z-ring (FtsZ-GFP); experiment: Z-ring formation, FtsZ-GFP fluorescent microscopy; format: cell-based, Sinorhizobium meliloti; settings: 2 μM, 200 mins; listed as L-NCR247
Description: FIG. 15. […] Visualization of Z-ring formation during cell division by FtsZ-GFP labeled cells using fluorescent microscopy. Data indicates percentage of cells displaying fully formed Z-rings when synchronized and treated with upon treatment with 2 μM of L or D-NCR247 for 200 mins. […] Data are presented as average of three biological replicates ±s.d.
Since NCR247 treatment leads to gene expression change in several genes of the CtrA regulon, we investigated the CtrA regulon and the cell division inhibition role of NCR247. […] In addition, this phenotype is retained in a peptide transporter bacA mutant indicating cell division inhibition happens due to protein-peptide interaction outside the cytoplasm.

[7] = system: Porphyromonas gingivalis; experiment: Cell viability assay for P. gingivalis; format: cell-based; settings: 48 hours, anaerobic, Brucella Broth
Description: as §1

[8] = system: S. meliloti; experiment: ICP-MS iron content of cells; format: cell-based, Sinorhizobium meliloti; settings: 2 μM
Description: ICP-MS: 200 μL of protein sample was mixed with 2 ml of 2% HNO3 and ICP-MS was performed as described previously^84. For bacterial samples, 1 ml of sample was spun down and the pellet was resuspended in 40 μL of 100% HNO3 and heated at 98° C. for 1 hour. The supernatant of the solution was mixed with metal free water to make up to 2 mL and ICP-MS analysis was performed as described previously^84. Same number of cells were spun down for protein analysis through […] and data were normalized to the amount of protein in each sample. For ICP-MS analysis of nodules same procedure was followed, except nodules were first crushed in PBS, portion of sample kept aside for protein quantification and then remaining was treated with HNO3. Agilent ICP-MS instrumentation with MassHunter 4.4 was used to collect data.

[9] = system: iron uptake genes (hmuP, foxA, fhuP, rhrA, fbpA), rirA; experiment: qRT-PCR of iron-related genes in S. meliloti; format: cell-based, Sinorhizobium meliloti; settings: 30 mins; for expression of iron uptake genes: 2 μM (NSR247 up to 15 uM)
Description: RNA isolation and qRT-PCR analysis: Cells were grown in LB until they reached an O.D.600 nm of 0.2. Then cells were spun down and suspended in minimal media with or without appropriate FeSO4 concentrations for 1 hour. NCR247 was then added and 5 ml of appropriate cultures were spun down at given time intervals. Total RNA was extracted using Trizol™ (Thermo Fisher Scientific) method. Qiagen RNeasy™ kit was used to purify the RNA. On-column DNA removal was carried out using DNase I from NEB. 500 ng of each RNA sample was used to make cDNA using the iScript™ cDNA synthesis kit (Biorad). qRT-PCRs were performed as described previously^86. The standard curve method was used for relative quantification. In short, a standard curve was generated for each gene of interest (including SMc00128) by setting up qpCR reactions to amplify increasing amounts of S. meliloti Rm 1021 genomic DNA. […] This curve was then used for extrapolating relative expression level of each gene of interest in a particular sample to obtain the starting quantities (SQ). This value is then normalized to the SQ values of SMc00128 obtained for respective sample. […] These normalized values are then expressed as an average of triplicates, with standard deviation (s.d.) represented by the error bars.

With RNGCIVDPRCPYQQCRRPLYCRRR [NCR247] the “C. albicans biofilm formation” value [1] was “interferes with the ability of the opportunistic fungal pathogen Candida albicans to form biofilms; also recorded: can inhibit Candida albicans biofilms”, the water solubility [2] was “highly water soluble” and the “production of GFP” value [3] was “inhibition of production of GFP; also recorded: Fluorescence units decreased”. For the same sequence, the “growth / viable cell number of H. influenzae” value [4] was “can prevent the growth; also recorded: can block the growth”, the “growth / viable cell number of H. influenzae” value ([4]; listed as L-NCR247) was “Reduction of viable cell number” and the cytotoxicity [5] was “negligible cytotoxicity; also recorded: negligible hemolysis”. For the same sequence, the “formation of Z-ring” value [6] was “results in inhibition of assembly of the Z-ring; also recorded: greatly reduced”, the “growth / viable cell number of P. gingivalis” value [7] was “can prevent the growth” and the “growth / viable cell number of P. gingivalis” value ([7]; listed as L-NCR247) was “Reduction of viable cell number”. For the same sequence, the “total iron content of cells” value [8] was “elevated total iron content of the cells”, the “total iron content of cells” value ([8]; listed as L-NCR247) was “Increase in Fe content” and the “expression of iron uptake genes” value [9] was “increase in transcript levels of iron uptake genes”. The “expression of iron uptake genes” value ([9]; listed as L-NCR247) was “increase in expression of hmuP” and the “expression of rirA” value ([9]; 2 μM) was “rirA transcription was reduced”.
